Assay results: patent US20100204265A1 (priority 2009, published 2010)
pEC50: −log10 of the molar value.

System: ET (Huh-lucubineo-ET) cell line harboring I389luc-ubi-neo/NS3-3′/ET HCV replicon
Test: Replicon assay (HCV replicon, luciferase readout)
Format: cell-based
Conditions: Hepatitis C virus
Method: A cell line, ET (Huh-lucubineo-ET) is used for screening of compounds for inhibiting HCV RNA dependent RNA polymerase. The ET cell line is stably transfected with RNA transcripts harboring a I389luc-ubi-neo/NS3-3′/ET; replicon with firefly luciferase-ubiquitin-neomycin phosphotransferase fusion protein and EMCV-IRES driven NS3-5B polyprotein containing the cell culture adaptive mutations (E1202G; T1280I; K1846T) (Krieger at al, 2001 and unpublished). The ET cells are grown in DMEM (Dulbeco's Modified Eagle's Medium), supplemented with 10% fetal calf serum, 2 mM Glutamine, Penicillin (100 IU/mL)/Streptomycin (100 μg/mL), 1× nonessential amino acids, and 250 μg/mL G418 (“Geneticin”). They are all available through Life Technologies (Bethesda, Md.). The cells are plated at 0.5−1.0×10^4 cells/well in the 96 well plates and incubated for 24 hrs before adding test compound. The compounds are added to the cells to achieve a final concentration of 0.1 nM to […] and a final DMSO (dimethylsulfoxide) concentration of 0.5%. Luciferase activity is measured 48-72 hours later by adding a lysis buffer and the substrate (Catalog number Glo-lysis buffer E2661 and Bright-Glo luciferase system E2620 Promega, Madison, Wis.). Cells should not be too confluent during the assay. Percent inhibition of replication data is plotted relative to no compound control. Under the same condition, cytotoxicity of the compounds are determined using cell proliferation reagent, WST-1 (Roche, Germany). The compounds showing antiviral activities, but no significant cytotoxicities are chosen to determine EC50 and TC50. For these determinations, a 10 point, 2-fold serial dilution for each compound was used, which spans a concentration range of 1000 fold. EC50 and similarly TC50 values were calculated by fitting % inhibition at each concentration to the following equation:
% inhibition=100%/[(EC50/[I])^b+1]
where b is Hill's coefficient.

Compound | pEC50
O=C(c1nc2c(C(F)(F)F)cc(-c3ccccc3)cn2c1Cl)N1CC=C(c2ncccc2F)CC1 [Compound 124, (3-Chloro-6-phenyl-8-trifluoromethyl-imidazo[1,2-a]pyridin-2-yl)-(3-fluoro-3′,6′-dihydro-2′H-[2,4′]bipyridinyl-1′-yl)-methanone] | 5.61
O=C(c1nc2c(C(F)(F)F)cc(Br)cn2c1Cl)N1CC=C(c2ncccc2F)CC1 [Compound 125, (6-Bromo-3-chloro-8-trifluoromethyl-imidazo[1,2-a]pyridin-2-yl)-(3-fluoro-3′,6′-dihydro-2′H-[2,4′]bipyridinyl-1′-yl)-methanone] | 7.53
C=Cc1cc(C(F)(F)F)c2nc(C(=O)N3CC=C(c4ncccc4F)CC3)c(Cl)n2c1 [Compound 126, (3-Chloro-8-trifluoromethyl-6-vinyl-imidazo[1,2-a]pyridin-2-yl)-(3-fluoro-3′,6′-dihydro-2′H-[2,4′]bipyridinyl-1′-yl)-methanone] | 7.56
O=C(c1nc2c(C(F)(F)F)cc(/C=C/C3CC3)cn2c1Cl)N1CC=C(c2ncccc2F)CC1 [Compound 127, [3-Chloro-6-(2-cyclopropyl-vinyl)-8-trifluoromethyl-imidazo[1,2-a]pyridin-2-yl]-(3-fluoro-3′,6′-dihydro-2′H-[2,4′]bipyridinyl-1′-yl)-methanone] | 6.37
O=C(Cc1cccc(F)c1)NCc1cn2cc(-c3ccoc3)cc(C(F)(F)F)c2n1 [Compound 128, 2-(3-Fluoro-phenyl)-N-(6-furan-3-yl-8-trifluoromethyl-imidazo[1,2-a]pyridin-2-ylmethyl)-acetamide] | 5.32
O=C(Cc1ccccc1F)NCc1cn2cc(-c3ccoc3)cc(C(F)(F)F)c2n1 [Compound 129, 2-(2-Fluoro-phenyl)-N-(6-furan-3-yl-8-trifluoromethyl-imidazo[1,2-a]pyridin-2-ylmethyl)-acetamide] | 4.69
O=C(NCc1cn2cc(-c3ccoc3)cc(C(F)(F)F)c2n1)c1ccccc1 [Compound 130, N-(6-Furan-3-yl-8-trifluoromethyl-imidazo[1,2-a]pyridin-2-ylmethyl)-benzamide] | 4.30
O=C(c1nc2c(C(F)(F)F)cc(-c3cn[nH]c3)cn2c1Cl)N1CC=C(c2ccoc2)C1 [Compound 131, [3-Chloro-6-(1H-pyrazol-4-yl)-8-trifluoromethyl-imidazo[1,2-a]pyridin-2-yl]-(3-furan-3-yl-2,5-dihydro-pyrrol-1-yl)-methanone] | 6.57
O=C(c1nc2c(C(F)(F)F)cc(-c3cn[nH]c3)cn2c1Cl)N1CC=C(c2ccsc2)C1 [Compound 132, [3-Chloro-6-(1H-pyrazol-4-yl)-8-trifluoromethyl-imidazo[1,2-a]pyridin-2-yl]-(3-thiophen-3-yl-2,5-dihydro-pyrrol-1-yl)-methanone] | 6.97
O=C(c1nc2c(C(F)(F)F)cc(-c3cn[nH]c3)cn2c1Cl)N1CC=C(c2cnoc2)C1 [Compound 133, [3-Chloro-6-(1H-pyrazol-4-yl)-8-trifluoromethyl-imidazo[1,2-a]pyridin-2-yl]-(3-isoxazol-4-yl-2,5-dihydro-pyrrol-1-yl)-methanone] | 5.46
O=C(c1nc2c(C(F)(F)F)cc(-c3cn[nH]c3)cn2c1Cl)N1CC=C(c2cccnc2)C1 [Compound 134, [3-Chloro-6-(1H-pyrazol-4-yl)-8-trifluoromethyl-imidazo[1,2-a]pyridin-2-yl]-(3-pyridin-3-yl-2,5-dihydro-pyrrol-1-yl)-methanone] | 6.73
O=C(c1nc2c(C(F)(F)F)cc(-c3cn[nH]c3)cn2c1Cl)N1CC=C(c2cn[nH]c2)C1 [Compound 135, [3-Chloro-6-(1H-pyrazol-4-yl)-8-trifluoromethyl-imidazo[1,2-a]pyridin-2-yl]-[3-(1H-pyrazol-4-yl)-2,5-dihydro-pyrrol-1-yl]-methanone] | 6.22
O=C(c1nc2c(C(F)(F)F)cc(-c3cn[nH]c3)cn2c1Cl)N1CC=C(C2=CCNCC2)C1 [Compound 136, [3-Chloro-6-(1H-pyrazol-4-yl)-8-trifluoromethyl-imidazo[1,2-a]pyridin-2-yl]-[3-(1,2,3,6-tetrahydro-pyridin-4-yl)-2,5-dihydro-pyrrol-1-yl]-methanone] | 5.27
O=C(c1nc2c(C(F)(F)F)cc(-c3cn[nH]c3)cn2c1Cl)N1CC=C(c2cc[nH]n2)C1 [Compound 137, [3-Chloro-6-(1H-pyrazol-4-yl)-8-trifluoromethyl-imidazo[1,2-a]pyridin-2-yl]-[3-(1H-pyrazol-3-yl)-2,5-dihydro-pyrrol-1-yl]-methanone] | < 4.30
O=C(NCCc1cn2cc(-c3ccoc3)cc(C(F)(F)F)c2n1)c1ccccc1 [Compound 138, N-[2-(6-Furan-3-yl-8-trifluoromethyl-imidazo[1,2-a]pyridin-2-yl)-ethyl]-benzamide] | 4.45
CS(=O)(=O)NC1CN(C(=O)c2nc3c(C(F)(F)F)cc(-c4ccco4)cn3c2Cl)C1 [Compound 139, N-[1-(3-Chloro-6-furan-2-yl-8-trifluoromethyl-imidazo[1,2-a]pyridine-2-carbonyl)-azetidin-3-yl]-methanesulfonamide] | 6.95
CS(=O)(=O)NC1CN(C(=O)c2nc3c(C(F)(F)F)cc(Br)cn3c2Cl)C1 [Compound 140, N-[1-(6-Bromo-3-chloro-8-trifluoromethyl-imidazo[1,2-a]pyridine-2-carbonyl)-azetidin-3-yl]-methanesulfonamide] | 4.86
CS(=O)(=O)NC1CN(C(=O)c2nc3c(C(F)(F)F)cc(-c4cccc(F)c4)cn3c2Cl)C1 [Compound 141, N-{1-[3-Chloro-6-(3-fluoro-phenyl)-8-trifluoromethyl-imidazo[1,2-a]pyridine-2-carbonyl]-azetidin-3-yl}-methanesulfonamide] | 6.32
CS(=O)(=O)NC1CN(C(=O)c2nc3c(C(F)(F)F)cc(-c4cccnc4)cn3c2Cl)C1 [Compound 142, N-[1-(3-Chloro-6-pyridin-3-yl-8-trifluoromethyl-imidazo[1,2-a]pyridine-2-carbonyl)-azetidin-3-yl]-methanesulfonamide] | 5.71
CN(C1CN(C(=O)c2nc3c(C(F)(F)F)cc(-c4ccoc4)cn3c2Cl)C1)S(C)(=O)=O [Compound 143, N-[1-(3-Chloro-6-furan-3-yl-8-trifluoromethyl-imidazo[1,2-a]pyridine-2-carbonyl)-azetidin-3-yl]-N-methyl-methanesulfonamide] | 6.05
CS(=O)(=O)N(CCO)C1CN(C(=O)c2nc3c(C(F)(F)F)cc(-c4ccoc4)cn3c2Cl)C1 [Compound 144, N-[1-(3-Chloro-6-furan-3-yl-8-trifluoromethyl-imidazo[1,2-a]pyridine-2-carbonyl)-azetidin-3-yl]-N-(2-hydroxy-ethyl)-methanesulfonamide] | 5.12
CS(=O)(=O)NC1CN(C(=O)c2cn3cc(-c4coc(Br)c4)cc(C(F)(F)F)c3n2)C1 [Compound 145, N-{1-[6-(5-Bromo-furan-3-yl)-8-trifluoromethyl-imidazo[1,2-a]pyridine-2-carbonyl]-azetidin-3-yl}-methanesulfonamide] | 5.46
CCS(=O)(=O)NC1CN(C(=O)c2cn3cc(-c4coc(Br)c4)cc(C(F)(F)F)c3n2)C1 [Compound 146, Ethanesulfonic acid {1-[6-(5-bromo-furan-3-yl)-8-trifluoromethyl-imidazo[1,2-a]pyridine-2-carbonyl]-azetidin-3-yl}-amide] | 5.65
O=C(c1cn2cc(-c3coc(Br)c3)cc(C(F)(F)F)c2n1)N1CC(NS(=O)(=O)C2CC2)C1 [Compound 147, Cyclopropanesulfonic acid {1-[6-(5-bromo-furan-3-yl)-8-trifluoromethyl-imidazo[1,2-a]pyridine-2-carbonyl]-azetidin-3-yl}-amide] | 5.40
O=C(c1nc2c(C(F)(F)F)cc(-c3ccoc3)cn2c1C1CC1)N1CC=C(c2ncccc2F)CC1 [Compound 149, (3-Cyclopropyl-6-furan-3-yl-8-trifluoromethyl-imidazo[1,2-a]pyridin-2-yl)-(3-fluoro-3′,6′-dihydro-2′H-[2,4′]bipyridinyl-1′-yl)-methanone] | 5.29
O=C(c1nc2c(C(F)(F)F)cc(C3=CCCC3)cn2c1Cl)N1CC=C(c2nccs2)C1 [Compound 150, (3-Chloro-6-cyclopent-1-enyl-8-trifluoromethyl-imidazo[1,2-a]pyridin-2-yl)-(3-thiazol-2-yl-2,5-dihydro-pyrrol-1-yl)-methanone] | 8.16
O=C(c1nc2c(C(F)(F)F)cc(C3=CCCC3)cn2c1Cl)N1CC=C(c2ncccc2F)CC1 [Compound 151, (3-Chloro-6-cyclopent-1-enyl-8-trifluoromethyl-imidazo[1,2-a]pyridin-2-yl)-(3-fluoro-3′,6′-dihydro-2′H-[2,4′]bipyridinyl-1′-yl)-methanone] | 6.13
O=C(c1nc2c(C(F)(F)F)cc(-c3ccoc3)cn2c1Cl)N1CCC(NCC2CC2)CC1 [Compound 152, (3-Chloro-6-furan-3-yl-8-trifluoromethyl-imidazo[1,2-a]pyridin-2-yl)-[4-(cyclopropylmethyl-amino)-piperidin-1-yl]-methanone] | 4.72
